The text below walks through data of ChEMBL document CHEMBL4184243, “Optimization of antimalarial, and anticancer activities of (E)-methyl 2-(7-chloroquinolin-4-ylthio)-3-(4-hydroxyphenyl) acrylate” (Bioorg Med Chem, 2018).

The structures appear in SMILES notation.

The first series relates to HL-60. Put plainly: Induction of apoptosis in human HL60 cells assessed as late apoptotic cells at 5 uM after 24 hrs by Annexin-V-FITC/propidium iodide staining based flow cytometric analysis (reference value: 0.85 +/- 0.13 %). The format is functional.
Conditions: not given
`COC(=O)/C(=C\c1ccc(OC(=O)c2cc(OC)c(OC)cc2OC)cc1)Sc1ccnc2cc(Cl)ccc12`: the Activity is 4.21%.

System in another series: not listed separately
The series can be described thus: Selectivity index, ratio of IC50 for human lymphocytes to IC50 for human HL60 cells. The format is toxicity. The following applies: human lymphocytes versus HL60 cells, read-out: Ratio IC50.
On to `COC(=O)/C(=C\c1ccc(OC(=O)c2cc(OC)cc(OC)c2OC)cc1)Sc1ccnc2cc(Cl)ccc12`, for which the selectivity ratio came to 6.91.
On the same count and under the same terms, as for `COC(=O)/C(=C\c1ccc(OC(=O)c2ccc(OC)cc2)cc1)Sc1ccnc2cc(Cl)ccc12`, the figure is 6.99; as for `O=[As][As+](=O)[O-]` (centres undefined) [ARSENIC TRIOXIDE], 3.07; as for `COC(=O)/C(=C\c1ccc(OC(=O)c2cc(OC)c(OC)cc2OC)cc1)Sc1ccnc2cc(Cl)ccc12`, 8.34.

A further series relates to HL-60. Put plainly: Induction of apoptosis in human HL60 cells assessed as necrotic cells at 5 uM after 24 hrs by Annexin-V-FITC/propidium iodide staining based flow cytometric analysis (reference value: 1.96 +/- 0.33 %). The format is functional.
Conditions: not given
On to `COC(=O)/C(=C\c1ccc(OC(=O)c2cc(OC)c(OC)cc2OC)cc1)Sc1ccnc2cc(Cl)ccc12`, for which the Activity is listed as 29.5%.

A further series concerns Jurkat E6.1. Put plainly: Cytotoxicity against human Jurkat E6-1 cells after 24 hrs by MTT assay. The format is functional, cell-based. The settings on record: Jurkat E6.1, 24 h.
In general, IC50 refers to the concentration needed to halve the response being measured. Consider `COC(=O)/C(=C\c1ccc(OC(=O)c2cc(OC)cc(OC)c2OC)cc1)Sc1ccnc2cc(Cl)ccc12`, for which the 50% inhibitory concentration (IC50) came to 15.6 µM.
Regarding `COC(=O)/C(=C\c1ccc(OC(=O)c2ccc(OC)cc2)cc1)Sc1ccnc2cc(Cl)ccc12`, the IC50 amounted to 11 µM.
Regarding `O=[As][As+](=O)[O-]` (centres undefined) [ARSENIC TRIOXIDE], the 50% inhibitory concentration (IC50) turned out to be 7.32 µM.
On the same count and under the same terms, as for `COC(=O)/C(=C\c1ccc(OC(=O)c2cc(OC)c(OC)cc2OC)cc1)Sc1ccnc2cc(Cl)ccc12`, the figure is 9.65 µM.

Another series deals with Lymphocyte. Put plainly: Cytotoxicity against human lymphocytes after 24 to 48 hrs by MTT assay. The format is cell-based.
Conditions: not given
A general note: Tetrazolium dyes change colour on reduction, which living cells bring about.
Consider `COC(=O)/C(=C\c1ccc(OC(=O)c2cc(OC)cc(OC)c2OC)cc1)Sc1ccnc2cc(Cl)ccc12`, for which 74 µM corresponded to half-maximal inhibition (IC50).
As to `COC(=O)/C(=C\c1ccc(OC(=O)c2ccc(OC)cc2)cc1)Sc1ccnc2cc(Cl)ccc12`, the IC50 worked out at 63.5 µM.
As to `O=[As][As+](=O)[O-]` (centres undefined) [ARSENIC TRIOXIDE], the IC50 was 15.3 µM.
Take `COC(=O)/C(=C\c1ccc(OC(=O)c2cc(OC)c(OC)cc2OC)cc1)Sc1ccnc2cc(Cl)ccc12`: half-maximal inhibition (IC50) required 52.5 µM.

The test system of another series is Jurkat E6.1. The series can be described thus: Induction of apoptosis in human Jurkat E6-1 cells assessed as early apoptotic cells at 5 uM after 24 hrs by Annexin-V-FITC/propidium iodide staining based flow cytometric analysis (reference value: 0.5 +/- 0.07 %). The format is functional.
Conditions: not given
Background: Flow cytometry measures light scatter and fluorescence of single cells or particles in a stream.
For `COC(=O)/C(=C\c1ccc(OC(=O)c2cc(OC)c(OC)cc2OC)cc1)Sc1ccnc2cc(Cl)ccc12`, the Activity is recorded as 0.85%.

System in another series: not listed separately
Put plainly: Selectivity index, ratio of IC50 for human lymphocytes to IC50 for human Jurkat E6-1 cells. The settings on record: human lymphocytes versus Jurkat E6-1 cells, read-out: Ratio IC50. The format is toxicity.
Regarding `COC(=O)/C(=C\c1ccc(OC(=O)c2cc(OC)cc(OC)c2OC)cc1)Sc1ccnc2cc(Cl)ccc12`, the selectivity ratio was 4.74.
Still for that read-out and setting: the value for `COC(=O)/C(=C\c1ccc(OC(=O)c2ccc(OC)cc2)cc1)Sc1ccnc2cc(Cl)ccc12` was 5.77; that for `O=[As][As+](=O)[O-]` (centres undefined) [ARSENIC TRIOXIDE] was 2.09.
Consider `COC(=O)/C(=C\c1ccc(OC(=O)c2cc(OC)c(OC)cc2OC)cc1)Sc1ccnc2cc(Cl)ccc12`, for which the selectivity ratio was 5.44.

System in another series: not listed separately
Put plainly: Inhibition of beta-hematin formation assessed as reduction in acetate buffer-initiated hemozoin formation measured after 48 hrs. More on the design: concentration or dose not given beside the values. The settings on record: concentration not given here.
The term inhibition denotes the share of the control response that was lost under treatment. Turning to `COC(=O)/C(=C\c1ccc(OC(=O)c2cc(OC)cc(OC)c2OC)cc1)Sc1ccnc2cc(Cl)ccc12`, the inhibition worked out at 47.7%.
Regarding `COC(=O)/C(=C\c1ccc(OC(=O)c2ccc(OC)cc2)cc1)Sc1ccnc2cc(Cl)ccc12`, the inhibition turned out to be 12.2%.
On the same count and under the same terms, the value for `COC(=O)/C(=C\c1ccc(OC(=O)c2cc(OC)c(OC)cc2OC)cc1)Sc1ccnc2cc(Cl)ccc12` was 39.6%.

The subject of a further series is Jurkat E6.1. Put plainly: Induction of apoptosis in human Jurkat E6-1 cells assessed as late apoptotic cells at 5 uM after 24 hrs by Annexin-V-FITC/propidium iodide staining based flow cytometric analysis (reference value: 0.73 +/- 0.14 %). The format is functional.
Conditions: not given
On to `COC(=O)/C(=C\c1ccc(OC(=O)c2cc(OC)c(OC)cc2OC)cc1)Sc1ccnc2cc(Cl)ccc12`, for which the Activity is listed as 3.17%.

The subject of another series is Jurkat E6.1. The series can be described thus: Induction of apoptosis in human Jurkat E6-1 cells assessed as necrotic cells at 5 uM after 24 hrs by Annexin-V-FITC/propidium iodide staining based flow cytometric analysis (reference value: 1.26 +/- 0.24 %).
Conditions: not given
The format is functional.
As for `COC(=O)/C(=C\c1ccc(OC(=O)c2cc(OC)c(OC)cc2OC)cc1)Sc1ccnc2cc(Cl)ccc12`, the Activity was 21.4%.

A further series concerns HL-60. Put plainly: Induction of apoptosis in human HL60 cells assessed as early apoptotic cells at 5 uM after 24 hrs by Annexin-V-FITC/propidium iodide staining based flow cytometric analysis (reference value: 0.36 +/- 0.02 %). The format is functional.
Conditions: not given
As to `COC(=O)/C(=C\c1ccc(OC(=O)c2cc(OC)c(OC)cc2OC)cc1)Sc1ccnc2cc(Cl)ccc12`, the Activity is 0.61%.

For the next series, the system named is HL-60. Put plainly: Cytotoxicity against human HL60 cells after 24 hrs by MTT assay. The format is functional, cell-based. The following applies: HL-60, 24 h.
With `COC(=O)/C(=C\c1ccc(OC(=O)c2cc(OC)cc(OC)c2OC)cc1)Sc1ccnc2cc(Cl)ccc12`, the half-inhibitory concentration (IC50) came out at 10.7 µM.
With `COC(=O)/C(=C\c1ccc(OC(=O)c2ccc(OC)cc2)cc1)Sc1ccnc2cc(Cl)ccc12`, the IC50 was found to be 9.09 µM.
As to `O=[As][As+](=O)[O-]` (centres undefined) [ARSENIC TRIOXIDE], the IC50 is 4.97 µM.
Consider `COC(=O)/C(=C\c1ccc(OC(=O)c2cc(OC)c(OC)cc2OC)cc1)Sc1ccnc2cc(Cl)ccc12`, for which the IC50 worked out at 6.26 µM.
